The values below are quoted from earlier work in patent US20130140210A1, “LOW-DOSED SOLID ORAL DOSAGE FORMS FOR HRT” (BAYER INTELLECTUAL PROPERTY GMBH, priority 2010, published 2013).

The subject of this series is moderate or severe hot flushes in menopausal women. To be noted: 2 mg E2.

In the case of `C[C@]12CC[C@@H]3c4ccc(O)cc4CC[C@H]3[C@@H]1CC[C@@H]2O` [E2, estradiol], the estrogen-related adverse events result is on record as “increased estrogen-related adverse events”.
